# How the values were obtained:
# [1] = Ratio of polynucleotide/mRNA to lipid (wt/wt); type: physicochemical
# Experimental: The nucleic acid lipid particle dispersion was mixed with acetonitrile and chloroform at a ratio of 1:1:1 and centrifuged at 15,000 rpm for 2 minutes. Then, the aqueous layer obtained as an upper layer was recovered, followed by the extraction of the double-stranded polynucleotide. The amount of the double-stranded polynucleotide in the sample was measured by ion-exchange chromatography (system: Agilent 1100 series, column: TSKgel DEAE-2SW (2.6×150 mm) (Tosoh Corp), buffer A: 20% acetonitrile, buffer B: 20% acetonitrile and 1.6 M ammonium formate, gradient (B %): 30-55% (0-20 min), flow rate: 1 mL/min, temperature: 40° C., detection: 260 nm).
# The amount of the phospholipid in the nucleic acid lipid particle dispersion was measured using Phospholipid C-Test Wako (Wako Pure Chemical Industries Ltd.) according to the attached document. Specifically, the phospholipid in the sample was quantified in the presence of a 1% Triton X-100 detergent.
# (§1) The amounts of cholesterol and LP in the nucleic acid lipid particle dispersion were measured by reverse-phase chromatography (system: Agilent 1100 series, column: Chromolith Performance RP-18 endcapped 100-3 monolithic HPLC-column (Merck), buffer A: 0.01% trifluoroacetic acid, buffer B: 0.01% trifluoroacetic acid and methanol, gradient (B %): 87-92% (0-10 min), flow rate: 2 mL/min, temperature: 50° C., detection: 205 nm).
# (§2) The total amount of lipids was calculated from the amount of the phospholipid and the compositional ratio of lipid components constituting the liposome, and the ratio of the polynucleotide to the lipid was calculated from the aforementioned amount of the polynucleotide and the total amount of lipids according to the following expression: [Double-stranded polynucleotide concentration]/[Total lipid concentration] (wt/wt)
# as §2, with “phospholipid, the amount of cholesterol, and the amount of LP,” for “phospholipid”
# The amount of the double-stranded polynucleotide in a sample from the nucleic acid lipid particle dispersion was measured in the presence of a 5% Triton X-100 detergent by ion-exchange chromatography (system: Agilent 1100 series, column: DNAPac PA200 (4×250 mm) (Thermo Fisher Scientific K.K.), buffer A: 10 mM Tris, 25 mM sodium perchlorate, and 20% ethanol, pH 7.0, buffer B: 10 mM Tris, 250 mM sodium perchlorate, and 20% ethanol, pH 7.0, gradient (B %): 20-70% (0-15 min), flow rate: 0.5 mL/min, temperature: 40° C., detection: 260 nm).
# as §1, with “82-92%” for “87-92%”
# The total amount of lipids was calculated from the amount of the phospholipid, the amount of cholesterol, and the amount of LP, and the compositional ratio of lipid components constituting the liposome, and the ratio of the mRNA to the lipid was calculated from the “amount of the mRNA in the presence of the detergent” of the preceding paragraph (2) according to the following expression: [mRNA concentration in the presence of the detergent]/[Total lipid concentration] (wt/wt)
# [2] = Rate of encapsulation of polynucleotide/mRNA (Quant-iT RiboGreen, with and without Triton X-100); type: physicochemical
# Experimental: The rate of encapsulation of the double-stranded polynucleotide was measured using Quant-iT RiboGreen RNA Assay kit (Invitrogen Corp.) according to the attached document.
# (§3) Specifically, the double-stranded polynucleotide in the nucleic acid lipid particle dispersion was quantified in the presence and absence of a 0.015% Triton X-100 detergent, and the rate of encapsulation was calculated according to the following expression: {[Amount of the double-stranded polynucleotide in the presence of the detergent]−[Amount of the double-stranded polynucleotide in the absence of the detergent]}/[Amount of the double-stranded polynucleotide in the presence of the detergent]}×100(%) (3) Ratio of Double-Stranded Polynucleotide to Lipid
# The rate of encapsulation of the mRNA was measured using Quant-iT RiboGreen RNA Assay kit (Invitrogen Corp.) according to the attached document.
# as §3, with “mRNA” for “double-stranded polynucleotide”, “mRNA” for “Double-Stranded Polynucleotide”
# human PLK-1 gene = assay: Test Example 10: PLK-1 expression inhibition in Hep3B tumor of nude mice; type: in vivo; settings: nude mice with subcutaneous Hep3B tumor, i.v. 1 mg/kg and 3 mg/kg, tumor collected the day after administration; particles of Example 57
# Experimental: After acclimatization and raising of each nude mouse (CAnN.Cg-Foxn1[nu]/CrlCrlj[Foxn1nu/Foxn1nu]) for 8 days, cultured human Hep3B cells (1×10^7 cells/mouse) were subcutaneously transplanted to the right lateral region of the mouse. 19 days after the tumor transplantation, the mice were grouped with the tumor volume as an index, and, on the next day, the nucleic acid lipid particle-containing dispersion prepared in Example 57 was intravenously administered (administered at doses of 1 mg/kg and 3 mg/kg) to the tail of each mouse. PBS was administered to a control group. On the day after the administration of the nucleic acid lipid particle, a tumor mass was collected from the cancer-bearing mouse, and a nucleic acid was extracted using QIAzol Lysis Reagent (manufactured by Qiagen N.V.) and chloroform. Then, total RNA was purified using QIAGNE RNeasy Plus Mini kit (manufactured by Qiagen N.V.) according to the attached protocol.
# 16 μL of the purified RNA and 4 μL of SuperScript VILO Master mix (Life Technologies, Inc.) were mixed and used in RT reaction under conditions given below.
# RT reaction: 25° C. for 10 min • 42° C. for 60 min • 85° C. for 5 min. […]
# The quantitative analysis was conducted by the ΔΔCt method. A value (ΔΔCt) was determined by subtracting ΔCt of the PBS administration group from the difference in Ct value (ΔCt) between human PLK-1 and human GAPDH in the administration group of each nucleic acid lipid particle, and a relative value (RQ) to the PBS administration group, RQmax, and RQmin were calculated according to the following expressions: RQ=2^−ΔΔCt RQmax=2^−95% CI of ΔΔCt (95% CI of ΔΔCt: the maximum value of 95% confidence interval of ΔΔCt) RQmin=2^−95% CI of ΔΔCt (95% CI of ΔΔCt: the minimum value of 95% confidence interval of ΔΔCt)
# In the diagram, error bars were calculated according to the following expression: +error bars:RQmax−RQ,−error bars:RQ−RQmin)
# [3] = Average particle size of nucleic acid lipid particle (NICOMP 380ZLS); type: physicochemical; settings: ± deviation
# Experimental: The particle size of the liposome was measured using Zeta Potential/Particle Sizer NICOMP™ 380ZLS (Particle Sizing Systems, LLC). In the tables, the average particle size is indicated by a volume-average particle size, and the numeric value following ±represents a deviation.
# Factor VII protein = assay: Test Example 9: Factor VII (FVII) protein measurement in mouse plasma, 0.1 mg/kg i.v.; type: in vivo; settings: mice, i.v. 0.1 mg/kg; for FVII inhibitory activity (in words): 1 day and 6 days after administration; for Relative amount of FVII, 1 day later: plasma 1 day after administration; for Relative amount of FVII, 1 day later / Relative amount of FVII, 6 days later: PBS = 100%; for Relative amount of FVII, 6 days later: plasma 6 days after administration
# Experimental: The Factor VII protein was measured according to a method described in Nature Biotechnology (2010) 28, 172-176. C57BL6/J mice (male, 9 weeks old) were randomly grouped (n=4). The nucleic acid lipid particle dispersion prepared in Example 33 was intravenously injected at a dose of 0.3 mg/kg to the tail of each mouse. One day after the administration, approximately 50 μL of blood was collected from the tail vein, and plasma was obtained. The amount of the Factor VII protein in the obtained plasma was measured using Biophen FVII assay kit (manufactured by Aniara Corp.) according to the attached protocol.
# When the amount of FVII of respective plasma samples collected in equal amounts from individuals in a PBS administration group was defined as 100%, the relative ratio (%) of the amount of FVII in a plasma sample of each individual was used as a measurement value (A). An average value (B) was determined from the respective measurement values of the individuals in the PBS administration group. The relative ratio of the measurement value (A) of each individual was determined from the expression: A/B×100(%).
# By the same procedures as in Test Example 7, the strength of Factor VII protein expression inhibitory activity was compared among nucleic acid lipid particles each prepared using a novel lipid. The prepared nucleic acid lipid particle dispersion was intravenously injected at a dose of 0.1 mg/kg to the tail of each mouse. One day and 6 days after the administration, approximately 50 μL of blood was collected from the tail vein, and plasma was obtained.
# [4] = Example 57: PLK1424-2/A siRNA, DPPC:Chol:LP:PEG-C-DSA=7:33.5:57:2.5, N/P 3
# [5] = Example 56: siFVII, DSPC:Chol:LP:PEG-C-DMA=10:48:40:2, N/P 3
"Ratio of polynucleotide to lipid siRNA/lipid [1, 4] [wt/wt]","Rate of polynucleotide encapsulation [2, 4] [%]","Average particle size [3, 4] [nm]","Ratio of polynucleotide to lipid siRNA/lipid [1, 5] [wt/wt]","Rate of polynucleotide encapsulation [2, 5] [%]","Average particle size [3, 5] [nm]",Structure (SMILES),"PLK-1 expression inhibitory activity in tumor (in words, FIG. 5) (human PLK-1 gene)",FVII inhibitory activity (in words) (Factor VII protein),"Relative amount of FVII, 1 day later (Factor VII protein) [%]","Relative amount of FVII, 6 days later (Factor VII protein) [%]"
0.095,97,103 ± 16,,,,"CCCCCCCCCCCCCCCCCC(CCCCCCCCCC)OC(=O)OCCCN(C)C (stereo not drawn) [Example 19, 3-(Dimethylamino)propyloctacosan-11-yl Carbonate]",strong PLK-1 expression inhibitory activity,,,
0.093,96,100 ± 27,,,,"CCCCCCCCCCCCCCCCCCCC(CCCCCCCCCC)OC(=O)OCCCN(C)C (stereo not drawn) [Example 45, 3-(Dimethylamino)propyl triacontan-11-yl Carbonate]",strong PLK-1 expression inhibitory activity,,,
0.078,98,127 ± 29,,,,"CCCCC/C=C\C/C=C\CCCCCCCCC(COCCCCCCCC/C=C\C[C@@H](CCCCCC)OC(C)=O)OC(=O)OCCCN(C)C (stereo partly drawn) [Example 54, (20,23R)-2-Methyl-9-[(9Z,12Z)-octadeca-9,12-dien-1-yl]-7-oxo-6,8,11-trioxa-2-azanonacos-20-en-23-yl Acetate]",strong PLK-1 expression inhibitory activity,,,
,,,0.083,97,177 ± 36,"CCCCCCCCCCC(CCCCCCC/C=C\C[C@@H](CCCCCC)OC(C)=O)OC(=O)OCCCN(C)C (stereo partly drawn) [Example 28, (7R,9Z)-18-({[3-(Dimethylamino)propyloxy]carbonyl}oxy)octacos-9-en-7-yl Acetate]",,strong FVII inhibitory activity,45,57
,,,0.076,99,219 ± 49,"CCCCCC[C@H](C/C=C\CCCCCCCC(CCCCCCC/C=C\C[C@@H](CCCCCC)OC(C)=O)OC(=O)OCCCN(C)C)OC(C)=O [Example 23, (7R,9Z,26Z,29R)-18-({[3-(Dimethylamino)propoxy]carbonyl}oxy)pentatriaconta-9,26-diene-7,29-diyl Diacetate]",,strong FVII inhibitory activity,21,32
